Data reported in patent US20260216137A1, “COMPOSITION FOR PREVENTING OR TREATING INFLAMMATORY SKIN DISEASES,CONTAINING 1H-PYRAZOLE-3-AMIDE COMPOUND DERIVATIVE” (AJOU UNIVERSITY INDUSTRY-ACADEMIC COOPERATION FOUNDATION, priority 2023, published 2026).

Columns and labels:
Format in all cases: in vivo
[1] = test system: psoriasis mouse model; assay: Psoriasis mouse model (Aldara cream): PASI score and spleen weight; conditions: Aldara cream psoriasis mice; intraperitoneal daily, Compound 1 20 mg/kg, Compound 2 10 mg/kg; FIG. 2
Description: (§1) The hair on the backs of 7-week-old mice was removed, and then 62.5 mg of Aldara cream was applied daily for 4 days. 1% DMSO and 5% kolliphor in PBS were mixed to be injected into the vehicle intraperitoneally daily. 20 mg/kg of Compound 1, 10 mg/kg of Compound 2, and 10 mg/kg of MTx were prepared in body weight×[…], which was injected intraperitoneally daily. After injection, the mice were left for 30 minutes for sufficient suppression of cannabinoid receptor 1, applied with Aldara cream, and then sacrificed on day 5 from day 1 at which the Aldara cream was first applied, and skin tissues were made into paraffin blocks. These were evenly cut into 4 μm thick pieces, and immunochemical staining was performed.

[2] = test system: psoriasis mouse model; assay: Psoriasis mouse model: skin thickness by hematoxylin/eosin staining; conditions: Aldara cream psoriasis mice; intraperitoneal daily, Compound 1 20 mg/kg, Compound 2 10 mg/kg; FIG. 3
Description: as §1
(§2) The slides were placed in a 60° C. oven for 1 hour, rinsed with xylene solution for 5 minutes, 100% EtOH for 5 minutes, 70% EtOH for 5 minutes, distilled water, and PBS, and then immersed in hematoxylin for 10 seconds and eosin for 3 seconds. Afterwards, they were rinsed with 70% EtOH and 100% EtOH, immersed in xylene for 20 seconds, sprayed with mounting solution, and covered with a cover glass. Each section of the skin tissue was photographed using a Leica microscope and then quantified by setting three sections per tissue as the average.

[3] = test system: TNF-α; assay: Psoriasis mouse model: TNF-α expression by immunohistochemical staining; conditions: Aldara cream psoriasis mice; intraperitoneal daily, Compound 1 20 mg/kg, Compound 2 10 mg/kg; FIG. 4
Description: as §1
(§3) For immunohistochemical staining, the slides were placed in a 60° C. oven for 1 hour, rinsed with xylene solution for 5 minutes, 100% EtOH for 5 minutes, 70% EtOH for 5 minutes, distilled water, and PBS, then immersed in citrate buffer, placed in a 100° C. oven for 30 minutes, and slowly cooled at room temperature for 45 minutes. After rinsing with distilled water, the slides were soaked in PBS for 5 minutes, sprayed with 0.25% TritonX-100, and left for 10 minutes to disrupt the cell membrane and allow the antibodies to penetrate. […]
(§4) The signals of TNF-α and IL-1B, stained brown, were quantified through immunohistochemical staining.

[4] = test system: IL-1ß; assay: Psoriasis mouse model: IL-1β expression by immunohistochemical staining; conditions: Compound 1 20 mg/kg; for expression level of IL-1ß in the epidermis compared to vehicle group: Aldara cream psoriasis mice, intraperitoneal daily, Compound 2 10 mg/kg, FIG. 5
Description: as §1
For immunohistochemical staining, the slides were placed in a 60° C. oven for 1 hour, rinsed with xylene solution for 5 minutes, 100% EtOH for 5 minutes, 70% EtOH for 5 minutes, distilled water, and PBS, then immersed in citrate buffer, placed in a 100° C. oven for 30 minutes, and slowly cooled at room temperature for 45 minutes. After rinsing with distilled water, the slides were soaked in PBS for 5 minutes, sprayed with 0.25% TritonX-100, and left for 10 minutes to disrupt the cell membrane and allow the antibodies to penetrate. After rinsing with 0.1% Tween 20 in PBS (hereinafter referred to as PBST), hydrogen peroxide block buffer (abcam59717) was sprayed and left for 10 minutes. Afterwards, after rinsing with PBST, the slides were sprayed with 150 μl of normal blocking serum (VectastatinABC kit, PK-4001) mixed in 10 ml of PBS. The primary antibody was mixed with R.T.U animal free block and diluent (SP-5035) in 1:500, spread on the slides, and reacted in a refrigerator at 4° C. for 14 hours. After rinsing with PBST, the secondary antibody was applied for 1 hour and then HRP (VectastatinABC reagent) for 30 minutes. […]
as §4

[5] = test system: contact dermatitis mouse model; assay: Contact dermatitis mouse model (oxazolone on ears): symptoms of dermatitis; conditions: oxazolone contact dermatitis mice; intraperitoneal daily, Compound 2 20 mg/kg, Compound 1 10 mg/kg; FIG. 6
Description: (§5) After removing hair from the ears of 7-week-old mice, on the day after hair removal (day 1), oxazolone (4-ethoxymethylene-2-phenyl-2-oxazolin-5-one, cat #E0753-1G, sigma-Aldrich) was mixed in acetone and olive oil in a concentration of 2%, which was then applied to the inner and outer sides of the ears by 5 μl each. 1% DMSO and 5% kolliphor in PBS were mixed to be injected into the vehicle intraperitoneally daily. Intraperitoneal injection was conducted daily by 20 mg/kg for Compound 2 and 10 mg/kg for Compound 1 with a 30 interval for sufficient suppression of cannabinoid receptor 1 after the injection, and then the size of the ears was measured, followed by application of oxazolone (on days 1 and 6). On day 6, 1% oxazolone was prepared and applied to the inner and outer side of the ears by 5 μl each, and on day 7, the mice were sacrificed, with the ears formed into paraffin blocks and then cut into 4 μm thick pieces to be placed on slides.
The 2% oxazolone used on day 1 was finally prepared in a volume of 800 μl for 20 mice, 16 mg of oxazolone was first dissolved in 160 μl of olive oil, then 640 μl of acetone was additionally mixed, and 10 μl of the mixture was applied on both ears, 5 μl for the front and 5 μl for the back per ear. […]

[6] = test system: contact dermatitis mouse model; assay: Contact dermatitis mouse model: ear skin thickness by hematoxylin/eosin staining; conditions: oxazolone contact dermatitis mice; intraperitoneal daily, Compound 2 20 mg/kg, Compound 1 10 mg/kg; FIG. 7
Description: as §5, with “slides. […]” for “slides.”
as §2, with “Afterwards, they were rinsed with 70% EtOH and 100% EtOH, immersed in xylene for 20 seconds, sprayed with mounting solution, and covered with a cover glass.” left out, “of” for “of the”

[7] = test system: IL-1B; assay: Contact dermatitis mouse model: IL-1β expression by immunohistochemical staining; conditions: oxazolone contact dermatitis mice; intraperitoneal daily, Compound 2 20 mg/kg, Compound 1 10 mg/kg; FIG. 8
Description: as §3, with “penetrate. After rinsing with 0.1% Tween 20 in PBS (hereinafter referred to as PBST), hydrogen peroxide block buffer (abcam59717) was sprayed and left for 10 minutes.” for “penetrate.”
(§6) After removing hair from the ears of 7-week-old mice, on the day after hair removal (day 1), oxazolone (4-ethoxymethylene-2-phenyl-2-oxazolin-5-one, cat #E0753-1G, sigma-Aldrich) was mixed in acetone and olive oil in a concentration of 2%, which was then applied to the inner and outer sides of the ears by 5 μl each. […] Intraperitoneal injection was conducted daily by 20 mg/kg for Compound 2 and 10 mg/kg for Compound 1 with a 30 interval for sufficient suppression of cannabinoid receptor 1 after the injection, and then the size of the ears was measured, followed by application of oxazolone (on days 1 and 6). […]

[8] = test system: IL-17A; assay: Contact dermatitis mouse model: IL-17A expression by immunohistochemical staining; conditions: oxazolone contact dermatitis mice; intraperitoneal daily, Compound 2 20 mg/kg, Compound 1 10 mg/kg; FIG. 9
Description: as §3, with “penetrate. After rinsing with 0.1% Tween 20 in PBS (hereinafter referred to as PBST), hydrogen peroxide block buffer (abcam59717) was sprayed and left for 10 minutes.” for “penetrate.”
as §6

| Structure (SMILES) | PASI score compared to vehicle group [1] | spleen weight compared to vehicle group [1] | thickness of the epidermis compared to vehicle group [2] | expression level of TNF-α in the epidermis compared to vehicle group [3] | expression level of IL-1ß in the epidermis compared to vehicle group [4] | symptoms of contact dermatitis compared to vehicle group [5] | thickness of the ear skin compared to vehicle group [6] | expression level of IL-1B in the epidermis compared to vehicle group [7] | expression level of IL-17A compared to vehicle group [8] | inhibitory effect on inflammatory factor expression, Compound 1 versus Compound 2 ([4]; psoriasis mice, comparison stated after the TNF-α and IL-1ß results, Compound 2 10 mg/kg intraperitoneal) |
| --- | --- | --- | --- | --- | --- | --- | --- | --- | --- | --- |
| Cc1c(/C=C/C(=O)NCc2cccc(Cl)c2)nn(-c2ccc(Cl)cc2Cl)c1-c1ccc(Cl)cc1 [Compound 2, (E)-N-(3-chlorobenzyl)-3-(5-(4-chlorophenyl)-1-(2,4-dichlorophenyl)-4-methyl-1H-pyrazol-3-yl) acrylamide] | lower | decrease | significantly reduced | significantly reduced | significantly reduced | reduced | significantly reduced | significantly reduced | significantly reduced |  |
| Cc1c(C(=O)C(=O)NCCO)nn(-c2ccc(Cl)cc2Cl)c1-c1ccc(Cl)cc1 [Compound 1, 2-(5-(4-chlorophenyl)-1-(2,4-dichlorophenyl)-4-methyl-1H-pyrazol-3-yl)-N-(2-hydroxyethyl)-2-oxoacetamide] | lower | decrease | significantly reduced | significantly reduced | significantly reduced | reduced | significantly reduced | significantly reduced | significantly reduced | higher than that of Compound 2 |
